Results reported in PubChem BioAssay (NCI).
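48-hour exposure; five concentrations; linearly interpolated endpoints. GI50: concentration for 50% inhibition of growth. TGI: total growth inhibition.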

Assays:
Assay in all cases: NCI tumour cell line growth inhibition, 48 h
KM20L2 colon = test system: KM20L2 colon
SNB-78 CNS = test system: SNB-78 CNS
LXFL 529 NSCLC = test system: LXFL 529 NSCLC
DMS 114 small cell lung = test system: DMS 114 small cell lung
DMS 273 small cell lung = test system: DMS 273 small cell lung
XF 498 CNS = test system: XF 498 CNS
RXF-631 renal = test system: RXF-631 renal
HOP-18 NSCLC = test system: HOP-18 NSCLC
MDA-N = test system: MDA-N
P388/ADR leukemia = test system: P388/ADR leukemia
SN12K1 renal = test system: SN12K1 renal
P388 leukemia = test system: P388 leukemia

| Compound | TGI (KM20L2 colon) [µM] | TGI (SNB-78 CNS) [µM] | TGI (LXFL 529 NSCLC) [µM] | TGI (DMS 114 small cell lung) [µM] | TGI (DMS 273 small cell lung) [µM] | TGI (XF 498 CNS) [µM] | TGI (RXF-631 renal) [µM] | TGI (HOP-18 NSCLC) [µM] | GI50 (MDA-N) [µM] | TGI (MDA-N) [µM] | TGI (P388/ADR leukemia) [µM] | TGI (SN12K1 renal) [µM] | TGI (P388 leukemia) [µM] | GI50 (HOP-18 NSCLC) [µM] |
| --- | --- | --- | --- | --- | --- | --- | --- | --- | --- | --- | --- | --- | --- | --- |
| Cc1ccc2c(C3Cc4ccccc4N3C(=O)/C=C\C(=O)O)c(C)[nH]c2c1 (stereo not given) | > 100 | 45.3 | 42.9 | > 100 | > 100 | – | – | – | – | – | – | – | – | – |
| N#CC(C#N)=C1NC(=O)CC(=O)N1 | > 100 | > 100 | > 100 | > 100 | > 100 | > 100 | – | – | – | – | – | – | – | – |
| O=C1NC(=O)C2C(=O)NC(=O)C1C2c1c(Cl)cccc1Cl (stereo not given) | > 83.6 | > 100 | > 100 | > 53.5 | > 57.5 | > 100 | > 100 | > 100 | – | – | – | – | – | – |
| CC(=O)Nc1ccc(SC#N)c2c(NC(C)=O)cccc12 | > 100 | > 100 | > 73 | > 100 | > 100 | – | > 100 | > 100 | – | – | – | – | – | – |
| O=C(O)CN1CCN(CC(=O)O)CC(=O)[O][Hg][O]C(=O)C1 | – | – | – | – | – | – | – | – | 16.7 | 31.7 | – | – | – | – |
| CCC(=O)C12OC3OC(C)(C)OC3C1OC(C)(C)O2 (stereo not given) | – | > 100 | – | – | > 100 | > 100 | > 100 | – | – | – | – | – | – | – |
| N#CC(=C1C=CC(=NO)C=C1)c1ccc(Cl)cc1 | > 100 | – | 18 | 31.5 | > 100 | – | – | > 100 | – | – | – | – | – | – |
| O=C1CC(c2c[nH]c3ccccc23)C(=O)N1 (stereo not given) | > 100 | > 100 | > 100 | – | > 100 | > 100 | > 100 | – | – | – | – | – | – | – |
| COc1cc(C(=O)C/C(CCC(=O)Nc2ccccc2[N+](=O)[O-])=N\NC(N)=O)ccc1O | > 100 | > 100 | – | > 100 | > 100 | > 100 | > 100 | > 100 | – | – | – | – | – | – |
| O=C1OC(=O)C(=C\c2ccc3c(c2)OCO3)/C1=C/c1ccc2c(c1)OCO2 | – | – | – | – | – | – | – | – | – | > 100 | – | – | – | – |
| COC(=O)C1CC2CC(=NNC(N)=O)CC2C1 (stereo not given) | – | > 100 | > 100 | > 100 | > 100 | > 100 | – | – | – | – | – | – | – | – |
| O=C(/C=C/c1ccccc1)CCN1CCOCC1 | 31.2 | 47.3 | 8.43 | 23.9 | 35.9 | 29.1 | – | 32.2 | – | 30.1 | 7.76 | 31 | > 27.2 | – |
| CCN(CC)CC1c2ccccc2C(CNc2ccccc2)N1C (stereo not given) | > 100 | > 100 | > 100 | > 100 | > 100 | > 100 | > 100 | – | – | – | – | – | – | – |
| Cc1[nH]c2ccccc2c1C(=O)CC1(O)C(=O)Nc2c(Cl)cc(Cl)cc21 (stereo not given) | – | > 100 | 30.8 | 44.9 | > 100 | 32.8 | > 100 | 85.6 | – | – | – | – | – | – |
| Cc1ccc(-c2nnc(-c3nn(-c4ccccc4)c4nc5ccccc5nc34)o2)cc1 | > 100 | > 100 | 35.7 | 51.1 | 65.1 | 25.4 | – | 65.2 | – | – | – | – | – | – |
| CC1(O)C=CC(=O)C=C1 | > 100 | 97.2 | 26.4 | 32.3 | 38.5 | > 65.1 | – | > 100 | – | – | – | – | – | – |

| Compound | TGI (KM20L2 colon) [µM] | TGI (SNB-78 CNS) [µM] | TGI (LXFL 529 NSCLC) [µM] | TGI (DMS 114 small cell lung) [µM] | TGI (DMS 273 small cell lung) [µM] | TGI (XF 498 CNS) [µM] | TGI (RXF-631 renal) [µM] | TGI (HOP-18 NSCLC) [µM] | GI50 (MDA-N) [µM] | TGI (MDA-N) [µM] | TGI (P388/ADR leukemia) [µM] | TGI (SN12K1 renal) [µM] | TGI (P388 leukemia) [µM] | GI50 (HOP-18 NSCLC) [µM] |
| --- | --- | --- | --- | --- | --- | --- | --- | --- | --- | --- | --- | --- | --- | --- |
| COc1cc2c(c(OC)c1OC)-c1ccc(SC)c(=O)cc1C(NC(=O)c1ccccc1)CC2 (stereo not given) | < 0.01 | > 90.9 | > 76.5 | – | > 40.6 | – | – | > 100 | – | – | – | – | – | – |
| COC(=O)C1(C)CCc2c(OC)ccc(OC)c2C1=O (stereo not given) | – | > 100 | > 100 | > 100 | > 100 | > 100 | > 100 | – | – | – | – | – | – | – |
| Cc1cccc(C)c1NC(=O)/C(=N/NC(N)=S)C(C)C(=O)c1ccc(Cl)cc1 (stereo not given) | > 100 | > 100 | > 100 | > 100 | > 100 | > 100 | > 100 | > 100 | – | – | – | – | – | – |
| CCOC(=O)C1C(=S)NC(=O)C1C#N (stereo not given) | > 100 | – | > 100 | > 100 | > 100 | – | > 100 | > 100 | – | – | – | – | – | – |
| NC(CSC1c2ccccc2-c2ccccc21)C(=O)O (stereo not given) | – | – | – | – | – | – | – | – | – | > 100 | – | – | – | – |
| COc1cc2c(cc1C1COc3cc4occc4cc3C1=O)OCO2 (stereo not given) | – | – | – | – | – | – | – | – | – | > 100 | – | – | – | – |
| COc1ccccc1-c1cc(=O)c2cc(C)cnc2[nH]1 | – | – | – | – | – | – | – | – | 4.41 | 24.9 | – | – | – | – |
| NNC(=O)CS(=O)(=O)Nc1ncccn1 | – | – | – | – | – | – | – | – | – | > 100 | – | – | – | – |
| O=C(NC1CCCCC1)NS(=O)(=O)c1ccc2c(c1)CCC2 | – | – | – | > 100 | – | > 100 | > 100 | > 100 | – | – | – | – | – | – |
| NC(=O)c1csc(C2OC(CO)C(O)C2O)n1 (stereo not given) | > 9200 | > 9480 | – | 3160 | 9960 | 732 | – | > 3980 | 59.5 | > 6490 | 84.1 | > 9220 | 159 | – |
| Cc1c(/C=N/N=C/c2[nH]c(C(=O)OC(C)(C)C)c(C)c2C)[nH]c(C(=O)OC(C)(C)C)c1C | > 100 | > 100 | > 100 | > 100 | > 100 | – | – | > 100 | – | – | – | – | – | – |
| COC1C=COC2(C)Oc3c(C)c(O)c4c(c3C2=O)/C(=N/C2CCC(O)OC2C)C=C(NC(=O)/C(C)=C\C(=O)C2CC2C(O)C(C)C(O)C(C)C(OC(C)=O)C1C)C4=O (stereo not given) | – | – | – | – | – | – | – | – | – | 3.83 | – | – | – | – |
| O=C1c2ccccc2-c2cc([N+](=O)[O-])c([N+](=O)[O-])cc21 | – | – | – | – | – | – | – | – | – | 5.18 | – | – | – | – |
| O=C1C(=C([O-])c2ccccc2)C(=O)c2ccccc21.O=C1C(=C([O-])c2ccccc2)C(=O)c2ccccc21.[Fe+2] | – | – | – | – | – | – | – | > 100 | – | – | – | – | – | > 100 |
| CC#CCC1CCC(OCC)=CC1=O (stereo not given) | > 100 | > 100 | > 100 | > 100 | > 100 | > 100 | > 100 | > 100 | – | – | – | – | – | – |
| Nc1nc(OCc2ccccc2)c2[nH]cnc2n1 | 400 | 400 | 400 | 191 | 400 | – | 309 | 335 | – | – | – | – | – | – |
